In series [1] the test system is PC-12. Briefly: Neuritogenic activity in rat PC12 cells at 100 uM after 16 hrs. In kind it is functional, cell-based.
The subject of series [2] is PC-12. Briefly: Cytotoxicity against rat PC12 cells assessed as effect on LDH release at 100 uM after 24 hrs. To be noted: pc-12, 24 h. The series is classed as cell-based. In general terms: LDH in the medium is a marker of cell lysis.
Series [3] relates to PC-12. Briefly: Cytotoxicity against rat PC12 cells assessed as effect on LDH release at 33 uM after 24 hrs. In kind it is cell-based. To be noted: pc-12, 24 h.
Series [4] relates to PC-12. The series can be described thus: Cytotoxicity against rat PC12 cells assessed as effect on LDH release after 24 hrs. The note with it: pc-12, 24 h. The series is classed as cell-based.

Among the data in ChEMBL document CHEMBL1150677, “Novel tetramic acids and pyridone alkaloids, militarinones B, C, and D, from the insect pathogenic fungus Paecilomyces militaris” (J Nat Prod, 2003) are Activity values, retold here.

The source made the active and inactive calls. The rule behind the calls is not given here.

Turning to `CC[C@@H](C)C[C@@H](C)/C=C(C)/C=C/C=C/C(=O)c1c(O)c(-c2ccc(O)cc2)c[nH]c1=O` (relative stereo) [MILITARINONE B], the result in series [1] was inactive. Moreover, the figures for the Activity in series [2] and in series [3] were 74% and 30.7%, respectively.

With `CC[C@@H](C)C[C@@H](C)/C=C(C)/C=C/C=C/C(O)=C1\C(=O)NC(C(O)c2ccc(O)cc2)C1=O` (relative stereo) [MILITARINONE C], in series [1], the result was Active. The Activity in series [2] was determined as 16.8%.

With `CC[C@@H](C)C[C@@H](C)/C=C(C)/C=C/C=C/C(O)=C1\C(=O)NC(Cc2ccc(O)cc2)C1=O` (relative stereo) [MILITARINONE D], the result in series [1] was Active. Also, the Activity result in series [4] is on record as “Non-toxic”.
